Results from patent EP2951180B1, “2,6,7,8 SUBSTITUTED PURINES AS HDM2 INHIBITORS” (Merck Sharp & Dohme Corp., priority 2013, dated 2014).

Each compound was assayed against T1, HDM2 (Homo sapiens, UniProt Q00987) (assay: FRET assay (HDM2 inhibition; method not described in this part)). Settings: Table 5.
T1 construct: Thioredoxin (N); made in house; host or cells: E. coli strain BL21(DE3)Rosetta
Type: binding

T1 sequence (Q00987 17-125): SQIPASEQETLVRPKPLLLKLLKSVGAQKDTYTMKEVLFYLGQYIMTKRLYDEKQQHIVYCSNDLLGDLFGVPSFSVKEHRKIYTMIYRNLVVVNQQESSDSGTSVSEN

SMILES | IC50
COc1ccc(Cn2c(-c3cccc(C)c3)nc3nc(C(=O)O)nc(N[C@H](C)C4CCC4)c32)cc1 [Example 5.19, 6-{[(1R)-1-cyclobutylethyl]amino}-7-(4-methoxybenzyl)-8-(3-methylphenyl)-7H-purine-2-carboxylic acid] | 582 nM
CCc1ccc(Cn2c(-c3cccc(C)c3)nc3nc(C(=O)O)nc(N[C@H](C)C4CC4)c32)cc1 [Example 5.20, 6-{[(1R)-1-cyclopropylethyl]amino}-7-(4-ethylbenzyl)-8-(3-methylphenyl)-7H-purine-2-carboxylic acid] | 1200 nM
Cc1ccc(Cn2c(-c3cccc(C)c3)nc3nc(C(=O)O)nc(N[C@H](C)C4CC4)c32)cc1 [Example 5.21, 6-{[(1R)-1-cyclopropylethyl]amino}-7-(4-methylbenzyl)-8-(3-methylphenyl)-7H-purine-2-carboxylic acid] | 1200 nM
